Active and inactive are the calls of the source. Rule as the data show it: actives have a measured IC50 and inactives only a lower limit.

In the assay the target is Envelope glycoprotein gp160 (Human immunodeficiency virus 1, UniProt Q6QLK5). Nature of the assay: cell-free HIV fusion peptide-binding blockers – biochemical, uHTS, fluorescence dequenching, […] (AID 1986).
Envelope glycoprotein gp160, sequence (Q6QLK5 whole entry, the tested form may be a part): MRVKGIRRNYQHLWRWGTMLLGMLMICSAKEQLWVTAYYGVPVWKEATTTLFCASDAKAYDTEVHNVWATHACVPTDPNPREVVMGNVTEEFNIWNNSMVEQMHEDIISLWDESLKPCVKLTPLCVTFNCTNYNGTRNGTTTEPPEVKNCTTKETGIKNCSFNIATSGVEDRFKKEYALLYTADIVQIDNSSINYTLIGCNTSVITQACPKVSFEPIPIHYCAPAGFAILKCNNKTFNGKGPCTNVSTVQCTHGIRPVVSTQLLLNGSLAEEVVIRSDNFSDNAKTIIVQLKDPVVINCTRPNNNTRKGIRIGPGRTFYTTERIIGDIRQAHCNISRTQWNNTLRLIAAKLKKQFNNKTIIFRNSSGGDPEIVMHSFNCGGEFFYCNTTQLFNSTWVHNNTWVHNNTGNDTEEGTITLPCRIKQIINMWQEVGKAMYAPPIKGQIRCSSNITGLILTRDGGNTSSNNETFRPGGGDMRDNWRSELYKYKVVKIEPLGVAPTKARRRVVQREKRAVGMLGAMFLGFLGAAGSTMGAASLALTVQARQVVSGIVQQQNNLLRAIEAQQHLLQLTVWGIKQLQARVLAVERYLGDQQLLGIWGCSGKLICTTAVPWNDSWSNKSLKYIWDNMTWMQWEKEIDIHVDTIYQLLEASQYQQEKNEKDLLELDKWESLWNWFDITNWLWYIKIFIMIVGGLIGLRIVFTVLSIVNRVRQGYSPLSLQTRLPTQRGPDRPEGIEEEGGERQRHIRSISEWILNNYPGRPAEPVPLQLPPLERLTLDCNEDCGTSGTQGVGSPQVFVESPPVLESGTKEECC
As a reminder, the IC50 is the concentration at which inhibition is half-maximal. In the case of `CCc1nnc(NS(=O)(=O)c2ccc(NC(=S)NC(=O)/C=C/c3ccc(C(C)C)cc3)cc2)s1`, the IC50 was 12.1 µM (active).
In the case of `O=C(O)c1ccc(N/N=C/c2ccc(-c3cccc(Cl)c3)o2)cc1`, the IC50 is 22.2 µM (active).
Regarding `CCOc1cc(/C=N/Nc2cccc(C(=O)O)c2)ccc1OC(=O)c1ccccc1`, the IC50 was 23.4 µM (active).

Values taken from ChEMBL document CHEMBL1201862, “PubChem BioAssay data set” (2004).
